The structures appear in SMILES notation.

The species named for assay [1] is Rattus norvegicus. Description: Stereoselectivity in presence of rat liver microsomes. It is filed as functional.
The species named for assay [2] is Rattus norvegicus. Description: Product stereoselectivity in presence of rat liver microsomes. Type of assay: functional.

Regarding `COCCc1ccc(OC[C@H](O)CNC(C)C)cc1`, the Activity in the assay listed under Rattus norvegicus [1] stood at 90.4%. For `COCCc1ccc(OC[C@@H](O)CNC(C)C)cc1`, in the assay listed under Rattus norvegicus [2], the Activity came to 96.3%. Turning to `COCCc1ccc(OCC(O)CNC(C)C)cc1` (racemic), the Activity in the assay filed under Rattus norvegicus [1] amounted to 93.2%.

The values are drawn from ChEMBL document CHEMBL1123962, “Chemical aspects of metoprolol metabolism. Asymmetric synthesis and absolute configuration of the 3-[4-(1-hydroxy-2-methoxyethyl)phenoxy]-1-(isopropylamino)-2-propanols , the diastereomeric benzylic hydroxylation metabolites” (J Med Chem, 1988).
